The target of experiment [1] is T1, NPY2 receptors (Homo sapiens, UniProt P49146).
T1 construct: Cell Membranes from KAN-TS cells having NPY2 receptors; endogenous in cells; host or cells: KAN-TS cells (membranes)
T1 sequence (P49146 1-381): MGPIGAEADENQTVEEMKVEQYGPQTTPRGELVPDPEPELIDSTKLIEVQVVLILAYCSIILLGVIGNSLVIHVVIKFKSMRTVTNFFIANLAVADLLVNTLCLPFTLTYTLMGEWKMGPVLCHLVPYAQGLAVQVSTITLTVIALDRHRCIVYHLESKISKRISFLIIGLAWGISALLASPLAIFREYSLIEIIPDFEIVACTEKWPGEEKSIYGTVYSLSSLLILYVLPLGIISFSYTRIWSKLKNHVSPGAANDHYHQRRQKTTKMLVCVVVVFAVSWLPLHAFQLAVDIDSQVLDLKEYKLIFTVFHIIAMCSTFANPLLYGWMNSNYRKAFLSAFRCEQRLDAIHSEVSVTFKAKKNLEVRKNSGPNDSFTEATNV
Nature of the experiment: Neuropeptide Y receptor binding assay (125I-PYY, KAN-TS cell membranes). The following applies: 10 μM compound; read-out: NPY-2@10, % Inh. As to the method:
Neuropeptide Y Receptor Binding Assay
Load 96-well RIA racks with RIA vials (Sarstedt, cat. #73.1055)
Prepare membranes—use 2×15 cm confluent plates/96-well assay plate
Add 14 mls Homogenization buffer/cell pellet
Homogenize at high speed for 15 seconds
Transfer to 15 ml conical tube and spin 5′ at 4° C. at setting 3 in RT6000 centrifuge
Transfer supernatant to 30 ml Corex tube
Balance and spin 25′ at 15,000 rpm at 4° C.
Resuspend pellet in 10 mls Binding buffer
Homogenize at high speed for 15 sec.
Bring volume up to 50 mls in Binding buffer (25 mls/2×96-well plates)
Keep on ice until use or freeze in aliquots (2 plates/tube) in −70° C.
Prepare ^125I-PYY (for 2×96-well compound plates)
Dilute 50 uCi ^125I-PYY in 1 ml H2O
Add 0.4 ml 10% BSA to 20 ml Binding buffer
Add 150 μl ^125I-PYY, mix well
NSB (1 μM PYY final conc.): 40 μl PYY (100 μM stock)+60 μl 30% DMSO in HEPES=40 μM PYY—add 5 μl/well
Total Binding: Add 5 μl/well of Compound Diluent
Add 5 μl compound (final conc. @10 μM)
Incubate at R.T. for 1 hr.
Spin plates for 10′ at setting 9 in RT6000 centrifuge
Aspirate supernatant from tubes, add 300 μl PBS and aspirate again.
After plates are washed and aspirated, put individual tubes in 12×75 mm polypropylene carrier tubes. Count on gamma counter.

Experiment [2] deals with human V1a receptor (Homo sapiens, UniProt P37288). The experiment is described as follows: V1a binding assay (3H-AVP displacement, HEK-293 membranes). More on the design: expressed in transfected cells; host or cells: HEK-293 (membranes). The following applies: for inhibition at 1 µM: 1.0 μM compound, read-out: V1a@1.0, % Inh. A digest of the protocol: (§1)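 Membranes from transfected HEK-293 cells incubated 1 h at room temperature with ³H-AVP (10,000 cpm) in 50 mM Tris, 5 mM MgCl2, 0.1% BSA, pH 7.5 plus protease inhibitors. Non-specific binding set with 1.25 μM AVP. Bound tracer collected on PEI-soaked GF/C filters and counted by scintillation.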

The target of experiment [3] is human V2 receptor (Homo sapiens, UniProt P30518). The experiment is described as follows: V2 binding assay (3H-AVP displacement, HEK-293 membranes). More on the design: expressed in transfected cells; host or cells: HEK-293 (membranes). Particulars: 1.0 μM compound; read-out: V2@1.0, % Inh. In a few lines: as §1
In experiment [4] the target is T2, human V1b receptor (Homo sapiens, UniProt P47901).
T2 sequence (P47901 1-424): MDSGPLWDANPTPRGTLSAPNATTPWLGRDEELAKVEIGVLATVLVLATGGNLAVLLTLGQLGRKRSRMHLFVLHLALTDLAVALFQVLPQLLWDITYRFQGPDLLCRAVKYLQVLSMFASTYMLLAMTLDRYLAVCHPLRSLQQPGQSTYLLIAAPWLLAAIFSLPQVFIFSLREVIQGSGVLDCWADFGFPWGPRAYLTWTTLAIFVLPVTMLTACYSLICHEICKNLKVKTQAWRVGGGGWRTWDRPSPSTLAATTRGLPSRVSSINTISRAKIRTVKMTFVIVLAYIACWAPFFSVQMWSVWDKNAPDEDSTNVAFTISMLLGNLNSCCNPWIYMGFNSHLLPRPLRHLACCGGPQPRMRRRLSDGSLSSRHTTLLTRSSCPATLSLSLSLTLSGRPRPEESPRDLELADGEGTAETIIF
Nature of the experiment: V1b binding assay (3H-AVP displacement, HEK-293 membranes). More on the design: expressed in transfected cells; host or cells: HEK-293 (membranes). Particulars: 10 μM compound; read-out: V1b % Inh @10. A digest of the protocol:
as §1

As usually defined, the IC50 is the concentration that gives 50% inhibition.

SMILES strings stand for the structures.

Chain of human V2 receptor (P30518 whole entry): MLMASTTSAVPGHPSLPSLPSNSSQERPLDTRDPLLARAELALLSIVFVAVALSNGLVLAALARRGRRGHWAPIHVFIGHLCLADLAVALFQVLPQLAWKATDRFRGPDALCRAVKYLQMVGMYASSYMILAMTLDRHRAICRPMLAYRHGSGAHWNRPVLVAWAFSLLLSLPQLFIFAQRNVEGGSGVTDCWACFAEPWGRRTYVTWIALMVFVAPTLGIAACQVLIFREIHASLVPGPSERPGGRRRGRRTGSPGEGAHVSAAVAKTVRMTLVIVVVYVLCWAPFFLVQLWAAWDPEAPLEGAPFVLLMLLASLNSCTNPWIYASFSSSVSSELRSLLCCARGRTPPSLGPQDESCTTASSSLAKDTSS
Chain of human V1a receptor (P37288 whole entry): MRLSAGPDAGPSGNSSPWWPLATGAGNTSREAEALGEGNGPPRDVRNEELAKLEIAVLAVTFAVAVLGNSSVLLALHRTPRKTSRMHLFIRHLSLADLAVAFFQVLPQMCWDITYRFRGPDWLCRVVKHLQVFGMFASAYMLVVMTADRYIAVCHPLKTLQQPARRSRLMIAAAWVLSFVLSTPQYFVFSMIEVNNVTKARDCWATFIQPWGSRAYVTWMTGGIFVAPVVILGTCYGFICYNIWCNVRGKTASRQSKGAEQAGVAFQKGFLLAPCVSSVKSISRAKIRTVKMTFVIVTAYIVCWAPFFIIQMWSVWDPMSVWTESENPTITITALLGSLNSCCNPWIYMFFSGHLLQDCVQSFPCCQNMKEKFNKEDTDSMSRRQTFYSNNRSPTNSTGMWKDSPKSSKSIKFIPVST

In the case of `O=c1[nH]c2ccccc2n1C1CCN(C(=S)NCc2ccc(Cl)cc2Cl)CC1` [Compound 17], the inhibition at 10 µM came to 15% in experiment [1] and 7% in experiment [4]. The inhibition at 1 µM turned out to be 12% in experiment [2] and 14% in experiment [3].
The like results for `COc1cccc(CNC(=S)N2CCC(n3c(=O)[nH]c4ccccc43)CC2)c1OC` [Compound 18] were, in that order, 10%, 3%, 22% and 9%.
Consider `COc1cc(CNC(=S)N2CCC(n3c(=O)[nH]c4ccccc43)CC2)cc(OC)c1OC` [Compound 20], for which the inhibition at 10 µM in experiment [1] was 12%; in experiment [2] (10 μM compound, read-out: V1a % Inh @10), 25%; in experiment [4], 0%. Moreover, the inhibition at 1 µM in experiment [3] was determined as 0%.
Regarding `O=c1[nH]c2ccccc2n1C1CCN(C(=S)NCCc2ccccc2)CC1` [Compound 22], the inhibition at 10 µM in experiment [1] worked out at 11%; in experiment [4] it was 0%. Besides, the inhibition at 1 µM worked out at 45% in experiment [2] and 4% in experiment [3].
The corresponding values for `O=c1[nH]c2ccccc2n1C1CCN(C(=S)NCCc2cccc(Cl)c2)CC1` [Compound 23] are 15%, 0%, 56% and 12%.
The like results for `CN(C)c1ccc(CNC(=S)N2CCC(n3c(=O)[nH]c4ccccc43)CC2)cc1` [Compound 24] were, in that order, 12%, 0%, 19% and 9%.
The like results for `O=c1[nH]c2ccccc2n1C1CCN(C(=S)NC(c2ccccc2)(c2ccccc2)c2ccccc2)CC1` [Compound 25, 1-[(N1-Piperidinocarbothioyltriphenylmethylamino)-4-yl]-1,3-dihydro-benzimidazol-2-one] were, in that order, 13%, 0%, 0% and 0%.
As for `O=c1[nH]c2ccccc2n1C1CCN(C(=S)NCCN2CCOCC2)CC1` [Compound 26], the inhibition at 10 µM in experiment [1] was determined as 10%; in experiment [4], 0%. For the same compound, the inhibition at 1 µM in experiment [2] is 33%; in experiment [3] it was 20%.
The corresponding values for `CC(NC(=S)N1CCC(n2c(=O)[nH]c3ccccc32)CC1)c1ccc(F)cc1` (stereo not shown) [Compound 27] are 15%, 0%, 33% and 20%.
As for `O=c1[nH]c2ccccc2n1C1CCN(C(=S)NCc2ccc(Cl)cc2)CC1` [Compound 28], the inhibition at 10 µM is 24% in experiment [1] and 3% in experiment [4]. The inhibition at 1 µM is 22% in experiment [2] and 0% in experiment [3].
With `O=c1[nH]c2ccccc2n1C1CCN(C(=S)NCc2cccnc2)CC1` [Compound 29], the inhibition at 10 µM was 11% in experiment [1] and 0% in experiment [4]. This compound also came in with an IC50 in experiment [2] of 1900 nM. The inhibition at 1 µM in experiment [3] is 2%.
The like results for `CC(Cc1ccc(Cl)cc1)NC(=S)N1CCC(n2c(=O)[nH]c3ccccc32)CC1` (stereo not shown) [Compound 30] were, in that order, 23%, 0%, 390 nM and 9%.
With `O=c1[nH]c2ccccc2n1C1CCN(C(=S)NCCc2ccc([N+](=O)[O-])cc2)CC1` [Compound 31], the inhibition at 10 µM in experiment [1] stood at 17%; in experiment [4], 5%. For the same compound, the inhibition at 1 µM amounted to 19% in experiment [2] and 15% in experiment [3].
The like results for `O=c1[nH]c2ccccc2n1C1CCN(C(=S)NC(Cc2ccccc2)c2ccccc2)CC1` (stereo not shown) [Compound 32] were, in that order, 26%, 4%, 42% and 9%.
The like results for `O=c1[nH]c2ccccc2n1C1CCN(C(=S)NC2c3ccccc3-c3ccccc32)CC1` [Compound 33] were, in that order, 13%, 9%, 33% and 0%.
The like results for `O=c1[nH]c2ccccc2n1C1CCN(C(=S)NC(c2ccccc2)c2ccc(Cl)cc2)CC1` (stereo not shown) [Compound 34] were, in that order, 22%, 13%, 42% and 21%.
Take `CCN(CC)CCn1c(=O)n(C2CCN(C(=S)NC(C)c3ccc(F)cc3)CC2)c2ccccc21` (stereo not shown) [Compound 36, 1-(N1-Piperidinocarbothioyl-(4-fluoro-[…]-methylbenzylamino)-4-yl)-3-(2-diethyaminoethyl)-1,3-dihydrobenzimidazol-2-one]: the inhibition at 10 µM in experiment [1] was found to be 16%; in experiment [4] it was 20%. Further, the inhibition at 1 µM in experiment [2] amounted to 45%; in experiment [3] it was 0%.
Consider `O=c1n(Cc2ccccc2)c2ccccc2n1C1CCN(C(=S)NC(c2ccccc2)c2ccccc2)CC1` [Compound 37, 1-(N1-Piperidinocarbothioyldiphenylmethylamino-4-yl)-3-benzyl-1,3-dihydrobenzimidazol benzimidazol-2-one], for which the inhibition at 10 µM came out at 0% in experiment [1] and 8% in experiment [4]. Besides, the inhibition at 1 µM was found to be 5% in experiment [2] and 2% in experiment [3].
The like results for `O=c1[nH]c2ccccc2n1C1CCN(C(=S)NCCCc2ccccc2)CC1` [Compound 38] were, in that order, 7%, 0%, 25% and 9%.
The like results for `O=c1n(Cc2ccccc2)c2ccccc2n1C1CCN(C(=S)NCCc2ccc(Cl)cc2)CC1` [Compound 39, 1-(N1-Piperidinocarbothioyl-2-(4-chlorophenyl)ethylamino-4-yl)-3-benzyl-1,3-dihydrobenzimidazol-2-one] were, in that order, 18%, 7%, 17% and 0%.
Take `COC(=O)C(Cc1ccccc1)NC(=S)N1CCC(n2c(=O)[nH]c3ccccc32)CC1` (stereo not shown) [Compound 40]: the figures for the inhibition at 10 µM in experiment [1] and in experiment [4] were 17% and 11%, respectively. Also, the IC50 in experiment [2] was found to be 190 nM. The inhibition at 1 µM in experiment [3] was 0%.
For the compound `CCN(CC)CCn1c(=O)n(C2CCN(C(=S)NC(Cc3ccccc3)C(=O)O)CC2)c2ccccc21` [Compound 43, 1-(N1-Piperidinocarbothioyl-(2-phenyl-1-L-carboxy)amino-4-yl)-3-(2-diethyaminoethyl)-1,3-dihydrobenzimidazol-2-one], the inhibition at 10 µM in experiment [1] was 13%; in experiment [4], 16%. Moreover, the inhibition at 1 µM in experiment [2] turned out to be 39%; in experiment [3], 10%.

The values above are taken from patent US6653478B2, “Substituted benzimidazol-2-ones as vasopressin receptor antagonists and neuropeptide Y modulators” (Ortho-McNeil Pharmaceutical, Inc., priority 2000, dated 2003).
